The values below are quoted from earlier work in US6558656B2, “Oral and topical compositions and methods related thereto in the treatment of acne” (priority 2000, dated 2003).

Where two headings read alike, the source gives them in different places. Where no end group is shown, it is not given here.

The test system of series [1] is acne.
Series [2] deals with BCO, Candida, or Cryptococcus. Conditions: immunosuppressed mice infected with BCO.
For series [3], the system named is C. albicans, Listeria monocytogenes, Pseudomonas aeruginosa, and Serratia marescens. Conditions: 5-fluorouracil (5FU)- or morphine-immunosuppressed mice, injection.
The test system of series [4] is Newcastle disease virus. Conditions: mice infected with the Newcastle disease virus.
Series [5] relates to Candida albicans. To be noted: mice, injection.

As for `CC(C)(CO)[C@@H](O)C(=O)NCCC(=O)O` [Pantothenic acid], the effectiveness in acne entry in series [1] (dosage level of 10 grams per day) is “effective”.
Regarding `[Zn]` [Zinc], in series [1] (dosage levels of 100-300 mg per day), the effectiveness in acne entry was “moderately effective”.
On to `CC1=C(/C=C/C(C)=C/C=C/C(C)=C\C(=O)O)C(C)(C)CCC1` [isotretinoin], for which the sebum production result in series [1] (administered orally) is “decreasing sebum production”. Moreover, the side effects entry in series [1] (in vivo, po) is reported as “potential to induce sever birth defects”. Further, in series [1] (oral administration), the effectiveness in acne result is recorded as “proven effective in the vast majority of cases”.
In the case of `CC1=C(/C=C/C(C)=C/C=C/C(C)=C/CO)C(C)(C)CCC1` [micellized Vitamin A, Vitamin A], in series [1] (in vivo), the toxicity entry is given as “known toxicity”. Further, the effectiveness in acne result in series [1] (very high doses) is given as “moderately effective”.
For “thymosin α1 (SDAAVDTSSEITTKDLKEKKEVVEEAEN; not fully specified (N-terminus); ends and bridges not checked; UniProt P06454 2-29, looked up) [Tα1, an immunomodulatory peptide of 28 amino acids]”, the survival rate result in series [2] is listed as “increased survival rate”. The “protection against opportunistic infections” value in series [3] was “protect”. The “amount of interferon (IFN) produced” value in series [4] is given as “significant rise”. In addition, the “resistance to infection with Candida albicans” value in series [5] is “increased resistance”.
